From patent publication US11053204B2, “Pyrimidinyloxy benzene derivatives as herbicides” (FMC Corporation, priority 2015, dated 2021)

Legend:
Format in all cases: in vivo
[1] = system: ragweed (common ragweed, Ambrosia elatior); test: Test A postemergence, visual injury rating; conditions: 0 to 100 scale, 0 is no effect, 100 is complete control, approximately 10 days
Method in brief: (§1)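 Greenhouse pot test, loam/sand soil. Formulation: non-phytotoxic solvent mix plus surfactant. Pre: directed spray onto soil after sowing. Post: plants at 1–2 leaf, 2–10 cm. Rated visually vs untreated controls at ~10 d, 0 (no effect) to 100 (complete control).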

kochia (Kochia scoparia) [2] = test: Test A postemergence, visual injury rating; conditions: 0 to 100 scale, 0 is no effect, 100 is complete control, approximately 10 days
Method in brief: as §1

[3] = system: barnyardgrass (Echinochloa crus-galli); test: Test A postemergence, visual injury rating; conditions: 0 to 100 scale, 0 is no effect, 100 is complete control, approximately 10 days
Method in brief: as §1

[4] = system: pigweed (Amaranthus retroflexus); test: Test A postemergence, visual injury rating; conditions: 0 to 100 scale, 0 is no effect, 100 is complete control, approximately 10 days
Method in brief: as §1

corn (Zea mays) = test: Test A postemergence, visual injury rating; conditions: 0 to 100 scale, 0 is no effect, 100 is complete control, approximately 10 days
Method in brief: as §1

[5] = system: blackgrass (Alopecurus myosuroides); test: Test A postemergence, visual injury rating; conditions: 0 to 100 scale, 0 is no effect, 100 is complete control, approximately 10 days
Method in brief: as §1

[6] = system: Italian ryegrass (Lolium multiflorum); test: Test A postemergence, visual injury rating; conditions: 0 to 100 scale, 0 is no effect, 100 is complete control, approximately 10 days
Method in brief: as §1

[7] = system: giant foxtail (Setaria faberii); test: Test A postemergence, visual injury rating; conditions: 0 to 100 scale, 0 is no effect, 100 is complete control, approximately 10 days
Method in brief: as §1

[8] = system: galium (catchweed bedstraw, Galium aparine); test: Test A postemergence, visual injury rating; conditions: 0 to 100 scale, 0 is no effect, 100 is complete control, approximately 10 days
Method in brief: as §1

[9] = system: wheat (Triticum aestivum); test: Test A postemergence, visual injury rating; conditions: 0 to 100 scale, 0 is no effect, 100 is complete control, approximately 10 days
Method in brief: as §1

[10] = system: sedge, umbrella (small-flower umbrella sedge, Cyperus difformis); test: Test B flooded paddy test, plant response rating; conditions: 250 g ai/ha; Flood; scale of 0 to 100 where 0 is no effect and 100 is complete control; 13 to 15 days
Method in brief: (§2)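 Ratings were visual and made relative to untreated controls after 13 to 15 greenhouse days.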

[11] = system: barnyardgrass (Echinochloa crus-galli); test: Test B flooded paddy test, plant response rating; conditions: 250 g ai/ha; Flood; scale of 0 to 100 where 0 is no effect and 100 is complete control; 13 to 15 days
Method in brief: as §2

rice (Oryza sativa) = test: Test B flooded paddy test, plant response rating; conditions: 250 g ai/ha; Flood; scale of 0 to 100 where 0 is no effect and 100 is complete control; 13 to 15 days
Method in brief: as §2

[12] = system: ducksalad (Heteranthera limosa); test: Test B flooded paddy test, plant response rating; conditions: 250 g ai/ha; Flood; scale of 0 to 100 where 0 is no effect and 100 is complete control; 13 to 15 days
Method in brief: as §2

[13] = system: ragweed (common ragweed, Ambrosia elatior); test: Test A preemergence, visual injury rating
Method in brief: as §1

kochia (Kochia scoparia) [14] = test: Test A preemergence, visual injury rating
Method in brief: as §1

[15] = system: barnyardgrass (Echinochloa crus-galli); test: Test A preemergence, visual injury rating
Method in brief: as §1

[16] = system: pigweed (Amaranthus retroflexus); test: Test A preemergence, visual injury rating
Method in brief: as §1

[17] = system: Italian ryegrass (Lolium multiflorum); test: Test A preemergence, visual injury rating
Method in brief: as §1

[18] = system: giant foxtail (Setaria faberii); test: Test A preemergence, visual injury rating
Method in brief: as §1

[19] = 31 g ai/ha, 0 to 100 scale, 0 no effect, 100 complete control
[20] = 125 g ai/ha, 0 to 100 scale (0 no effect, 100 complete control)

| Compound | Ragweed plant response rating ([1]; 31 g ai/ha) | Ragweed plant response rating ([1]; 125 g ai/ha) | Kochia plant response rating (kochia (Kochia scoparia) [2]; 31 g ai/ha) | Kochia plant response rating (kochia (Kochia scoparia) [2]; 125 g ai/ha) | Barnyardgrass plant response rating ([3]; 31 g ai/ha) | Barnyardgrass plant response rating ([3]; 125 g ai/ha) | Pigweed plant response rating ([4]; 31 g ai/ha) | Pigweed plant response rating ([4]; 125 g ai/ha) | Corn plant response rating (corn (Zea mays); 31 g ai/ha) | Corn plant response rating (corn (Zea mays); 125 g ai/ha) | Blackgrass plant response rating ([5]; 31 g ai/ha) | Blackgrass plant response rating ([5]; 125 g ai/ha) | Ryegrass, Italian plant response rating ([6]; 31 g ai/ha) | Ryegrass, Italian plant response rating ([6]; 125 g ai/ha) | Foxtail, Giant plant response rating ([7]; 31 g ai/ha) | Foxtail, Giant plant response rating ([7]; 125 g ai/ha) | Galium plant response rating ([8]; 31 g ai/ha) | Galium plant response rating ([8]; 125 g ai/ha) | Wheat plant response rating ([9]; 31 g ai/ha) | Wheat plant response rating ([9]; 125 g ai/ha) | also measured |
| --- | --- | --- | --- | --- | --- | --- | --- | --- | --- | --- | --- | --- | --- | --- | --- | --- | --- | --- | --- | --- | --- |
| O=C(OCCC(F)(F)F)c1c(Oc2ncc(Cl)cn2)cccc1C(F)(F)F [Compound 113] | 0 | 20 | 80 | 100 | 10 | 40 | 90 | 100 | 10 | 20 | 0 | 40 | 0 | 30 | 10 | 50 | 40 | 80 | 0 | 20 | Plant response rating, Sedge, Umbrella [10]: 90; Plant response rating, Barnyardgrass [11]: 65; Plant response rating, Rice (rice (Oryza sativa)): 20; Plant response rating, Ducksalad [12]: 80; Plant response rating, Ragweed [13, 19]: 0; Plant response rating, Ragweed [13, 20]: 0; Plant response rating, Kochia (kochia (Kochia scoparia) [14]; [19]): 10; Plant response rating, Kochia (kochia (Kochia scoparia) [14]; [20]): 60; Plant response rating, Barnyardgrass [15, 19]: 0; Plant response rating, Barnyardgrass [15, 20]: 90; Plant response rating, Pigweed [16, 19]: 100; Plant response rating, Pigweed [16, 20]: 100; Plant response rating, Ryegrass, Italian [17, 19]: 10; Plant response rating, Ryegrass, Italian [17, 20]: 40; Plant response rating, Foxtail, Giant [18, 19]: 60; Plant response rating, Foxtail, Giant [18, 20]: 100 |
| N#Cc1cccc(Oc2ncc(Cl)cn2)c1C(=O)CCC(F)(F)C(F)(F)F [Compound 111] | 0 | 0 | 0 | 0 | 0 | 0 | 0 | 0 | 0 | 0 | 0 | 0 | 0 | 0 | 0 | 0 | 0 | 0 | 0 | 0 | Plant response rating, Sedge, Umbrella [10]: 0; Plant response rating, Barnyardgrass [11]: 0; Plant response rating, Rice (rice (Oryza sativa)): 0; Plant response rating, Ducksalad [12]: 0; Plant response rating, Ragweed [13, 19]: 0; Plant response rating, Ragweed [13, 20]: 0; Plant response rating, Kochia (kochia (Kochia scoparia) [14]; [19]): 0; Plant response rating, Kochia (kochia (Kochia scoparia) [14]; [20]): 0; Plant response rating, Barnyardgrass [15, 19]: 0; Plant response rating, Barnyardgrass [15, 20]: 0; Plant response rating, Pigweed [16, 19]: 0; Plant response rating, Pigweed [16, 20]: 0; Plant response rating, Ryegrass, Italian [17, 19]: 0; Plant response rating, Ryegrass, Italian [17, 20]: 0; Plant response rating, Foxtail, Giant [18, 19]: 0; Plant response rating, Foxtail, Giant [18, 20]: 0 |
